A word on the IC50: it is the concentration needed to halve the response being measured.

Here are results for 40 molecules from patent publication US10253027B2, “Aryl lactam kinase inhibitors” (Bristol-Myers Squibb Company, priority 2013, dated 2019).

The target in the test is T1, GST-Xa-hAAK1 (Homo sapiens, UniProt Q2M2I8).
T1 construct: made in house
T1 sequence (Q2M2I8 whole entry): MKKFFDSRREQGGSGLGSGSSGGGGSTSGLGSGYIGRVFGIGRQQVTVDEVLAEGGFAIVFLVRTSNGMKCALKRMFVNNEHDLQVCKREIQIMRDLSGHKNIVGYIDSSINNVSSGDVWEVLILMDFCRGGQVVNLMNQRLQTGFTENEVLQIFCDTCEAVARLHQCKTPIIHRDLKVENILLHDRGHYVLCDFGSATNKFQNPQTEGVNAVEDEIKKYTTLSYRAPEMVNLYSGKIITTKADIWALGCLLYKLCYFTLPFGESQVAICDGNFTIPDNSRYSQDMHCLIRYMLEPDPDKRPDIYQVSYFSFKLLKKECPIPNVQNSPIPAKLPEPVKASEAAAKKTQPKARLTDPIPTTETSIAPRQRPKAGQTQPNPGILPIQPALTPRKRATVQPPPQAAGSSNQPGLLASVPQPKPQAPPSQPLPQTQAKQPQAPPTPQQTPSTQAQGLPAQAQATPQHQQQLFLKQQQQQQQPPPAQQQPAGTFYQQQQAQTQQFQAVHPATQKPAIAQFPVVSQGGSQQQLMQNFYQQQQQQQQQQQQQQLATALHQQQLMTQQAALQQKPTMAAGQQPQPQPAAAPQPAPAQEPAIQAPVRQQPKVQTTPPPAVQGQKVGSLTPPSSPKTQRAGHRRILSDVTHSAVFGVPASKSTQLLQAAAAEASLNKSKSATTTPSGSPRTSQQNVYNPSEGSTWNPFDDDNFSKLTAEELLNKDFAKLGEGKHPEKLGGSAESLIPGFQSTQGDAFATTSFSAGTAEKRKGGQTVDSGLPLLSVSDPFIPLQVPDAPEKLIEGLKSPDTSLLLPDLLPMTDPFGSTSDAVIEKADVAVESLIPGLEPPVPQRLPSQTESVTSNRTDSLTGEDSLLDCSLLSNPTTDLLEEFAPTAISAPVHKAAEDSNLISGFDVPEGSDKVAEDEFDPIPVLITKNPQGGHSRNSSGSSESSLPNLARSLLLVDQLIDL
The test can be described thus: AAK1 Kinase Assay. It counts as biochemical. The following applies: IC50 (nM), ATP 22 μM; 3 hours at room temperature; Caliper LabChip 3000. The procedure:
The assays were performed in U-bottom 384-well plates. […] The reactions were initiated by the combination of bacterially expressed, GST-Xa-hAAK1 with substrates and test compounds. The reactions were incubated at room temperature for 3 hours and terminated by adding 60 μl of 35 mM EDTA buffer to each sample. The reactions were analyzed on the Caliper LabChip 3000 (Caliper, Hopkinton, Mass.) by electrophoretic separation of the fluorescent substrate and phosphorylated product. […] Compounds were dissolved at 10 mM in dimethylsulfoxide (DMSO) and evaluated at eleven concentrations. IC50 values were derived by non-linear regression analysis.
As to `COc1cc(NC(=O)[C@H]2C[C@H](OC)CN2)ccc1-c1cnco1` [Example 78, (2R,4S)-4-Methoxy-N-(3-methoxy-4-(oxazol-5-yl)phenyl)pyrrolidine-2-carboxamide], the IC50 was found to be 2900 nM. Under `COc1cc(NC(=O)[C@H](N)CC(C)C)ccc1-n1cncn1` [Example 26, (R)-2-Amino-N-(3-methoxy-4-(1H-1,2,4-triazol-1-yl)phenyl)-4-methylpentanamide] stands 955 nM; under `COc1cc(NC(=O)[C@H](N)CC2CCC2)ccc1-c1cnco1` [Example 6, (R)-2-Amino-3-cyclobutyl-N-(3-methoxy-4-(oxazol-5-yl)phenyl)propanamide], 78 nM; under `COc1cc(NC(=O)[C@H](N)CC(C)(C)C)c(F)cc1-c1cnco1` (stereo in doubt) [Example 97, 2-Amino-N-(2-fluoro-5-methoxy-4-(oxazol-5-yl)phenyl)-4,4-dimethylpentanamide], 630 nM. On to `Cc1cc(NC(=O)[C@H](N)CC(C)C)ccc1-c1cnco1` [Example 13, (R)-2-Amino-4-methyl-N-(3-methyl-4-(oxazol-5-yl)phenyl)pentanamide], for which the IC50 came out at 248 nM. Under `COc1cc(NC(=O)[C@H](N)CC2CC2)ccc1-c1cnco1` [Example 9, (R)-2-Amino-3-cyclopropyl-N-(3-methoxy-4-(oxazol-5-yl)phenyl)propanamide] stands 115 nM; under `COc1cc(NC(=O)C(N)CCC(C)C)ccc1-c1cnco1` (stereo not shown) [Example 8, 2-Amino-N-(3-methoxy-4-(oxazol-5-yl)phenyl)-5-methylhexanamide], 90 nM; under `CNc1ccc2ncc(-c3ccc(NC(=O)[C@H](N)CC(C)C)cc3OC)n2n1` [Example 49, (R)-2-Amino-N-(3-(methoxy)-4-(6-(methylamino)imidazo[1,2-b]pyridazin-3-yl)phenyl)-4-methylpentanamide], 90 nM. Turning to `CC(C)C[C@@H](N)C(=O)Nc1ccc(-c2cnco2)c(O)c1` [Example 16, (R)-2-Amino-N-(3-hydroxy-4-(oxazol-5-yl)phenyl)-4-methylpentanamide], the IC50 is 100 nM. As for `COc1cc(NC(=O)[C@H](N)CC(C)C)c(C#N)cc1-c1cnco1` [Example 101, (R)-2-Amino-N-(2-cyano-5-methoxy-4-(oxazol-5-yl)phenyl)-4-methylpentanamide], the IC50 is 25 nM. Under `CC(C)C[C@@H](N)C(=O)Nc1cc(F)c(-c2cnco2)cc1F` [Example 105, (R)-2-Amino-N-(2,5-difluoro-4-(oxazol-5-yl)phenyl)-4-methylpentanamide] stands 620 nM; under `O=C(Nc1ccc(-c2ccncc2)cc1)C1NCCCC1C(F)(F)F` (mixture of isomers) [Example 120, N-(4-(Pyridin-4-yl)phenyl)-3-(trifluoromethyl)piperidine-2-carboxamide], 220 nM. Under `COc1cc(-c2cnco2)c(F)cc1NC(=O)[C@H](N)CC(C)C` [Example 107, (R)-2-Amino-N-(5-fluoro-2-methoxy-4-(oxazol-5-yl)phenyl)-4-methylpentanamide] stands 84 nM. Under `CNC1(C(=O)Nc2ccc(-c3cnco3)c(OC)c2)CC1` [Example 58, N-(3-Methoxy-4-(oxazol-5-yl)phenyl)-1-(methylamino)cyclopropanecarboxamide] stands 4400 nM; under `COc1cc(NC(=O)[C@@H]2CCCN2C(=O)C(C)C)ccc1-c1cnco1` [Example 82, (S)-1-Isobutyryl-N-(3-methoxy-4-(oxazol-5-yl)phenyl)pyrrolidine-2-carboxamide], 1800 nM. Consider `COc1cc(NC(=O)[C@@H](N)CC(C)C)ccc1-c1cnco1` [Example 5, (S)-2-Amino-N-(3-methoxy-4-(oxazol-5-yl)phenyl)-4-methylpentanamide], for which the 50% inhibitory concentration (IC50) is 104 nM.

For the molecule `COc1cc(NC(=O)C2CNC(=O)N2)ccc1-c1cnco1` (stereo not shown) [Example 57, N-(3-Methoxy-4-(oxazol-5-yl)phenyl)-2-oxoimidazolidine-4-carboxamide], the IC50 worked out at 780 nM.

Take `COc1cc(NC(=O)C2CCCCN2C(=O)C(C)C)ccc1-c1cnco1` (stereo not shown) [Example 80, 1-Isobutyryl-N-(3-methoxy-4-(oxazol-5-yl)phenyl)piperidine-2-carboxamide]: the IC50 came to 630 nM. To `COc1cc(NC(=O)[C@H](N)CC2CC2)c(F)cc1-c1cnco1` (stereo in doubt) [Example 95, 2-Amino-3-cyclopropyl-N-(2-fluoro-5-methoxy-4-(oxazol-5-yl)phenyl)propanamide] belongs 420 nM. On to `COc1c(-c2cnco2)ccc(NC(=O)[C@H](N)CC(C)C)c1Cl` [Example 28, (R)-2-Amino-N-(2-chloro-3-methoxy-4-(oxazol-5-yl)phenyl)-4-methylpentanamide], for which the IC50 came out at 709 nM.

Take `COc1cc(NC(=O)[C@H](O)CC(C)C)ccc1-c1cnco1` [Example 34, (R)-2-Hydroxy-N-(3-methoxy-4-(oxazol-5-yl)phenyl)-4-methylpentanamide]: the IC50 stood at 202 nM. Regarding `COc1cc(NC(=O)C(CC(C)C)NC2CNC2)ccc1-c1cnco1` (stereo not shown) [Example 32, 2-(Azetidin-3-ylamino)-N-(3-methoxy-4-(oxazol-5-yl)phenyl)-4-methylpentanamide], the concentration for half-maximal inhibition (IC50) turned out to be 1140 nM. As for `CC(C)C[C@@H](N)C(=O)Nc1ccc(-c2cnco2)c(-c2ccsc2)c1` [Example 15, (R)-2-Amino-4-methyl-N-(4-(oxazol-5-yl)-3-(thiophen-3-yl)phenyl)pentanamide], the half-maximal inhibitory concentration (IC50) worked out at 1370 nM. To `COc1cc(NC(=O)[C@H](N)CC(C)C)ccc1-c1nncs1` [Example 23, (R)-2-Amino-N-(3-methoxy-4-(1,3,4-thiadiazol-2-yl)phenyl)-4-methylpentanamide] belongs 5100 nM. In the case of `COc1cc(NC(=O)[C@@H](CC(C)C)NCc2cccn2C)ccc1-c1cnco1` [Example 61, (R)—N-(3-Methoxy-4-(oxazol-5-yl)phenyl)-4-methyl-2-(((1-methyl-1H-pyrrol-2-yl)methyl)amino)pentanamide], the IC50 is 72 nM. Take `COc1cc(NC(=O)[C@H](N)CC(C)C)ccc1-c1cn[nH]n1` [Example 19, (R)-2-Amino-N-(3-methoxy-4-(2H-1,2,3-triazol-4-yl)phenyl)-4-methylpentanamide]: the IC50 was 56 nM. Consider `COc1cc(NC(=O)[C@@H]2CCCCN2)ccc1-c1cnco1` [Example 73, (S)—N-(3-Methoxy-4-(oxazol-5-yl)phenyl)piperidine-2-carboxamide], for which the 50% inhibitory concentration (IC50) turned out to be 1500 nM. Under `COc1cc(NC(=O)C2NCCC2C(C)C)ccc1-c1cnco1` (single isomer, unassigned) [Example 38, 3-Isopropyl-N-(3-methoxy-4-(oxazol-5-yl)phenyl)pyrrolidine-2-carboxamide] stands 110 nM; under `COc1cc(NC(=O)[C@H](N)CC(C)(C)C)ccc1-c1cnco1` [Example 74, (R)-2-Amino-N-(3-methoxy-4-(oxazol-5-yl)phenyl)-4,4-dimethylpentanamide], 680 nM; under `COc1cc(NC(=O)C(CC(C)C)N2CCC(N)C2)ccc1-c1cnco1` (stereo not shown) [Example 30, 2-(3-Aminopyrrolidin-1-yl)-N-(3-methoxy-4-(oxazol-5-yl)phenyl)-4-methylpentanamide], 590 nM. Take `CCCS(=O)(=O)N[C@H](CC(C)C)C(=O)Nc1ccc(-c2cnco2)c(OC)c1` [Example 70, (R)—N-(3-Methoxy-4-(oxazol-5-yl)phenyl)-4-methyl-2-(propylsulfonamido)pentanamide]: the IC50 came out at 310 nM. On to `COc1cc(NC(=O)C2NCCC2C(C)C)ccc1-c1cnco1` (single isomer, unassigned) [Example 37, 3-Isopropyl-N-(3-methoxy-4-(oxazol-5-yl)phenyl)pyrrolidine-2-carboxamide], for which the half-maximal inhibitory concentration (IC50) turned out to be 8 nM.

Consider `COc1cc(NC(=O)[C@H](N)CC(C)C)c(F)cc1-c1cnco1` [Example 98, (R)-2-Amino-N-(2-fluoro-5-methoxy-4-(oxazol-5-yl)phenyl)-4-methylpentanamide], for which the IC50 stood at 1120 nM. To `COc1cc(NC(=O)C(N)CC(C)C)ccc1-c1cnco1` (stereo not shown) [Example 7, 2-Amino-N-(3-methoxy-4-(oxazol-5-yl)phenyl)-4-methylpentanamide] belongs 64 nM.

As to `COc1cc(NC(=O)C(N)CC(C)(C)F)ccc1-c1cnco1` (stereo not shown) [Example 84, 2-Amino-4-fluoro-N-(3-methoxy-4-(oxazol-5-yl)phenyl)-4-methylpentanamide], the IC50 is 240 nM.

For the molecule `COc1cc(NC(=O)[C@@H](CC(C)C)NS(=O)(=O)Cc2ccccc2)ccc1-c1cnco1` [Example 72, (R)—N-(3-Methoxy-4-(oxazol-5-yl)phenyl)-4-methyl-2-(phenylmethylsulfonamido)pentanamide], the IC50 was 1300 nM. To `COc1cc(NC(=O)[C@@H]2CCCN2C(C)C)ccc1-c1cnco1` [Example 81, (S)-1-Isopropyl-N-(3-methoxy-4-(oxazol-5-yl)phenyl)pyrrolidine-2-carboxamide] belongs 510 nM; to `COc1cc(NC(=O)C(N)C2CCCCC2C)ccc1-c1cnco1` (mixture of isomers) [Example 93, 2-Amino-N-(3-methoxy-4-(oxazol-5-yl)phenyl)-2-(2-methylcyclohexyl)acetamide], 20 nM; to `CC(C)C[C@@H](N)C(=O)Nc1ccc(-c2cnco2)c(N(C)C)c1` [Example 42, 2-Amino-N-(3-(dimethylamino)-4-(oxazol-5-yl)phenyl)-4-methylpentanamide], 860 nM. Turning to `COc1cc(NC(=O)C2NCCCC2C(C)C)ccc1-c1cnco1` (single isomer, unassigned) [Example 87, 3-Isopropyl-N-(3-methoxy-4-(oxazol-5-yl)phenyl)piperidine-2-carboxamide], the IC50 was 280 nM.
